Like-named read-outs stand apart in the source and are kept apart here.
How the values were obtained:
A2780 cells = assay: In-vitro cell proliferation assay (SRB), A2780 cells; assay type: cell-based; conditions: read-out: A2780 IC50;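 note: viable cell number read as SRB absorbance, background from media-only wells subtracted, IC50 interpolated from percent inhibition at two bracketing compound concentrations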
NAMPT = NAMPT (Homo sapiens (Human), UniProt P43490); assay: NAMPT biochemical inhibition assay (NMN quantified by mass spectrometry); conditions: NAMPT biochemical inhibition; read-out: Biochem IC50
NAMPT, sequence (P43490 whole entry): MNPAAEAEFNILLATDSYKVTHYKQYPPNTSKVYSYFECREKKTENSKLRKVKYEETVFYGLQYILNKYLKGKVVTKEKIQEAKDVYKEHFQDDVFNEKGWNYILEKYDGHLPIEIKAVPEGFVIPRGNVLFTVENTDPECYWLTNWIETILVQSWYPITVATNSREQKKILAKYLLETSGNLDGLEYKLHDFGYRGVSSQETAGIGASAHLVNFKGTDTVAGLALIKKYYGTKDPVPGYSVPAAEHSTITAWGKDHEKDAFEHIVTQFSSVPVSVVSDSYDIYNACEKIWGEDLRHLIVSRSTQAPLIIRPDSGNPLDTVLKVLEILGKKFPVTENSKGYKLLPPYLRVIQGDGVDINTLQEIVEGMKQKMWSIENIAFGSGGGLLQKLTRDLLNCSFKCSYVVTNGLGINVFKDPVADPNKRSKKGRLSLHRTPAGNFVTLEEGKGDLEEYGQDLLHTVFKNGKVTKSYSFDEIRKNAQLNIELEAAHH

[1] = Homo sapiens, A2780, 72 h, A2780 cells, 72 hours, SRB

| Compound | IC50 (A2780 cells; [1]) [nM] | IC50 (NAMPT) [nM] | IC50 (A2780 cells; A2780 cells, 72 hours, SRB) [nM] | IC50 (A2780 cells; Homo sapiens, A2780, 72 h) [nM] |
| --- | --- | --- | --- | --- |
| O=C(NCc1cccnc1)Nc1ccc(S(=O)(=O)c2ccc3c(c2)OCO3)cc1 [1-[4-(2H-1,3-benzodioxole-5-sulfonyl)phenyl]-3-(pyridin-3-ylmethyl)urea] | 322 | 1 | – | – |
| O=C(NCc1cccnc1)Nc1ccc(S(=O)(=O)N2CCOc3ccccc32)cc1 [1-[4-(3,4-dihydro-2H-1,4-benzoxazine-4-sulfonyl)phenyl]-3-(pyridin-3-ylmethyl)urea] | 459 | 10 | – | – |
| CC1CC(C)CN(S(=O)(=O)c2ccc(NC(=O)NCc3cccnc3)cc2)C1 (stereo not shown) [1-[4-(3,5-dimethylpiperidine-1-sulfonyl)phenyl]-3-(pyridin-3-ylmethyl)urea] | 14 | 6 | – | – |
| O=C(NCc1cccnc1)Nc1ccc(S(=O)(=O)N2CCC(F)(F)CC2)cc1 [1-[4-(4,4-difluoropiperidine-1-sulfonyl)phenyl]-3-(pyridin-3-ylmethyl)urea] | 299 | 25 | – | – |
| O=C(NCc1cccnc1)Nc1ccc(S(=O)(=O)N2CCCN(Cc3ccccc3)CC2)cc1 [1-[4-(4-benzyl-1,4-diazepane-1-sulfonyl)phenyl]-3-(pyridin-3-ylmethyl)urea] | 137 | 5 | – | – |
| O=C(NCc1cccnc1)Nc1ccc(S(=O)(=O)N2CCN(C(=O)[C@H]3CCCO3)CC2)cc1 [1-[4-(4-{[(2R)-oxolan-2-yl]carbonyl[piperazine-1-sulfonyl)phenyl]-3-(pyridin-3-ylmethyl)urea] | – | 8 | 30 | – |
| O=C(NCc1cc2ccncc2s1)Nc1ccc(S(=O)(=O)c2ccccc2)cc1 [1-[4-(benzenesulfonyl)phenyl]-3-{thieno[2,3-c]pyridin-2-ylmethyl}urea] | > 30000 | 460 | – | – |
| O=C(NCc1cccnc1)Nc1ccc(S(=O)(=O)NC2CCCCCC2)cc1 [1-[4-(cycloheptylsulfamoyl)phenyl]-3-(pyridin-3-ylmethyl)urea] | 80 | 3 | – | – |
| O=C(NCc1cccnc1)Nc1ccc(S(=O)(=O)NC2CCCCC2)cc1 [1-[4-(cyclohexylsulfamoyl)phenyl]-3-(pyridin-3-ylmethyl)urea] | 204 | 1 | – | – |
| O=C(NCc1cccnc1)Nc1ccc(S(=O)(=O)C2CCCC2)cc1 [1-[4-(cyclopentanesulfonyl)phenyl]-3-(pyridin-3-ylmethyl)urea] | 1860 | 43 | – | – |
| O=C(NCc1cccnc1)Nc1ccc(S(=O)(=O)N2CCCC3CCCCC32)cc1 (stereo not shown) [1-[4-(decahydroquinoline-1-sulfonyl)phenyl]-3-(pyridin-3-ylmethyl)urea] | 14 | 11 | – | – |
| O=C(NCc1cccnc1)Nc1ccc(S(=O)(=O)N(Cc2ccccc2)Cc2ccccc2)cc1 [1-[4-(dibenzylsulfamoyl)phenyl]-3-(pyridin-3-ylmethyl)urea] | 0.3 | 0.8 | – | – |
| O=C(NCc1cccnc1)Nc1ccc(S(=O)(=O)c2cncc3ccccc23)cc1 [1-[4-(isoquinoline-4-sulfonyl)phenyl]-3-(pyridin-3-ylmethyl)urea] | 8.3 | 1.4 | – | – |
| O=C(NCc1cccnc1)Nc1ccc(S(=O)(=O)c2cccc3c2Oc2ccccc2S3)cc1 [1-[4-(phenoxathiine-4-sulfonyl)phenyl]-3-(pyridin-3-ylmethyl)urea] | 1.8 | 2.9 | – | – |
| O=C(NCc1cccnc1)Nc1ccc(S(=O)(=O)N2CCNCC2)cc1 [1-[4-(piperazine-1-sulfonyl)phenyl]-3-(pyridin-3-ylmethyl)urea] | > 2000 | 48.6 | – | – |
| O=C(NCc1cccnc1)Nc1ccc(S(=O)(=O)c2cccc(C(=O)N3CCOCC3)c2)cc1 [1-[4-({3-[(morpholin-4-yl)carbonyl]benzene}sulfonyl)phenyl]-3-(pyridin-3-ylmethyl)urea] | 100 to 1000 | 5 | – | – |
| O=C(NCc1cccnc1)Nc1ccc(S(=O)(=O)c2ccccc2)nc1 [1-[6-(benzenesulfonyl)pyridin-3-yl]-3-(pyridin-3-ylmethyl)urea] | 2360 | 15 | – | – |
| O=C(NCc1ccc(F)c(F)c1)Nc1ccc(S(=O)(=O)N2CCCCC2)cc1 [1-[(3,4-difluorophenyl)methyl]-3-[4-(piperidine-1-sulfonyl)phenyl]urea] | 29000 | 92 | – | – |
| Nc1ccc(CNC(=O)Nc2ccc(S(=O)(=O)c3ccc(F)cc3)cc2)cn1 [1-[(6-aminopyridin-3-yl)methyl]-3-{4-[(4-fluorobenzene)sulfonyl]phenyl}urea] | 43 | 2 | – | – |
| O=C(NCc1cccnc1)Nc1ccc(S(=O)(=O)c2cccnc2N2CCOCC2)cc1 [1-{4-[2-(morpholin-4-yl)pyridine-3-sulfonyl]phenyl}-3-(pyridin-3-ylmethyl)urea] | 100 to 1000 | 16 | – | – |
| O=C(NCc1cccnc1)Nc1ccc(S(=O)(=O)N2CCC(N3C(=O)Cc4ccccc43)CC2)cc1 [1-{4-[4-(2-oxo-2,3-dihydro-1H-indol-1-yl)piperidine-1-sulfonyl]phenyl}-3-(pyridin-3-ylmethyl)urea] | – | 3 | – | 58 |

| Compound | IC50 (A2780 cells; [1]) [nM] | IC50 (NAMPT) [nM] | IC50 (A2780 cells; A2780 cells, 72 hours, SRB) [nM] | IC50 (A2780 cells; Homo sapiens, A2780, 72 h) [nM] |
| --- | --- | --- | --- | --- |
| O=C(NCc1cccnc1)Nc1ccc(S(=O)(=O)N2CCN(C(=O)Cc3ccccc3)CC2)cc1 [1-{4-[4-(2-phenylacetyl)piperazine-1-sulfonyl]phenyl}-3-(pyridin-3-ylmethyl)urea] | 932 | 3 | – | – |
| O=C(NCc1cccnc1)Nc1ccc(S(=O)(=O)N2CCC(N3CCCCCC3)CC2)cc1 [1-{4-[4-(azepan-1-yl)piperidine-1-sulfonyl]phenyl}-3-(pyridin-3-ylmethyl)urea] | 6 | 5 | – | – |
| O=C(NCc1cccnc1)Nc1ccc(S(=O)(=O)N2CCC(N3CCCCC3)CC2)cc1 [1-{4-[4-(piperidin-1-yl)piperidine-1-sulfonyl]phenyl}-3-(pyridin-3-ylmethyl)urea] | 13 | 7 | – | – |
| O=C(NCc1cccnc1)Nc1ccc(S(=O)(=O)c2ccc(N3CCOCC3)nc2)cc1 [1-{4-[6-(morpholin-4-yl)pyridine-3-sulfonyl]phenyl}-3-(pyridin-3-ylmethyl)urea] | 30.4 | 3.6 | – | – |
| O=C(NCc1cccnc1)Nc1ccc(S(=O)(=O)NC2(c3ccccc3)CCCC2)cc1 [1-{4-[(1-phenylcyclopentyl)sulfamoyl]phenyl}-3-(pyridin-3-ylmethyl)urea] | 180 | 29 | – | – |
| O=C(NCc1cccnc1)Nc1ccc(S(=O)(=O)N2CC[C@@]3(C2)OC(=O)c2ccccc23)cc1 [1-{4-[(1R)-3-oxo-3H-spiro[2-benzofuran-1,3′-pyrrolidine]-1′-ylsulfonyl]phenyl}-3-(pyridin-3-ylmethyl)urea] | 41 | 5 | – | – |
| O=C(NCc1cccnc1)Nc1ccc(S(=O)(=O)c2ccccc2Oc2ccccc2)cc1 [1-{4-[(2-phenoxybenzene)sulfonyl]phenyl}-3-(pyridin-3-ylmethyl)urea] | 8 | 2 | – | – |
| O=C(NCc1cccnc1)Nc1ccc(S(=O)(=O)Nc2ccccc2-c2ccccc2)cc1 [1-{4-[(2-phenylphenyl)sulfamoyl]phenyl}-3-(pyridin-3-ylmethyl)urea] | 47 | 3 | – | – |
| O=C(NCc1cccnc1)Nc1ccc(S(=O)(=O)N2CCCC[C@@H]2CN2CCOCC2)cc1 [1-{4-[(2R)-2-(morpholin-4-ylmethyl)piperidine-1-sulfonyl]phenyl}-3-(pyridin-3-ylmethyl)urea] | 81 | 51 | – | – |
| O=C(NCc1cccnc1)Nc1ccc(S(=O)(=O)N2CCCC[C@@H]2Cc2ccccc2)cc1 [1-{4-[(2R)-2-benzylpiperidine-1-sulfonyl]phenyl}-3-(pyridin-3-ylmethyl)urea] | 24 | 4 | – | – |
| O=C(NCc1cccnc1)Nc1ccc(S(=O)(=O)Nc2cccc(C(=O)c3ccccc3)c2)cc1 [1-{4-[(3-benzoylphenyl)sulfamoyl]phenyl}-3-(pyridin-3-ylmethyl)urea] | 1000 to 10000 | 4.4 | – | – |
| N#Cc1cccc(S(=O)(=O)c2ccc(NC(=O)NCc3cccnc3)cc2)c1 [1-{4-[(3-cyanobenzene)sulfonyl]phenyl}-3-(pyridin-3-ylmethyl)urea] | 100 to 1000 | 8 | – | – |
| O=C(NCc1cccnc1)Nc1ccc(S(=O)(=O)c2cccc(-c3ccccc3)c2)cc1 [1-{4-[(3-phenylbenzene)sulfonyl]phenyl}-3-(pyridin-3-ylmethyl)urea] | 100 to 1000 | 6.8 | – | – |
| N#Cc1ccc(S(=O)(=O)c2ccc(NC(=O)NCc3cccnc3)cc2)cc1 [1-{4-[(4-cyanobenzene)sulfonyl]phenyl}-3-(pyridin-3-ylmethyl)urea] | 100 to 1000 | 7.6 | – | – |
| O=C(NCc1cccnc1)Nc1ccc(S(=O)(=O)c2ccc(-c3ccccc3)cc2)cc1 [1-{4-[(4-phenylbenzene)sulfonyl]phenyl}-3-(pyridin-3-ylmethyl)urea] | 100 to 1000 | 5.8 | – | – |
| O=C(NCc1cccnc1)Nc1ccc(S(=O)(=O)NCC2CCCCC2)cc1 [1-{4-[(cyclohexylmethyl)sulfamoyl]phenyl}-3-(pyridin-3-ylmethyl)urea] | 181 | 4 | – | – |
| O=C(NCc1cccnc1)Nc1ccc(S(=O)(=O)NCc2ccccn2)cc1 [1-{4-[(pyridin-2-ylmethyl)sulfamoyl]phenyl}-3-(pyridin-3-ylmethyl)urea] | 1000 to 10000 | 8.4 | – | – |
| O=C(NCc1ccc(S(=O)(=O)c2ccccc2)cc1)Nc1ccc2ncccc2c1 [1-{[4-(benzenesulfonyl)phenyl]methyl}-3-(quinolin-6-yl)urea] | > 30000 | 2260 | – | – |
| CC(C)NC(=O)c1cc(S(=O)(=O)c2ccc(NC(=O)NCc3cccnc3)cc2)ccc1F [2-fluoro-N-(propan-2-yl)-5-[(4-{[(pyridin-3-ylmethyl)carbamoyl]amino}benzene)sulfonyl]benzamide] | 100 to 1000 | 20.9 | – | – |
| CC(C)C(=O)NC1CCN(S(=O)(=O)c2ccc(NC(=O)NCc3cccnc3)cc2)CC1 [2-methyl-N-{1-[(4-{[(pyridin-3-ylmethyl)carbamoyl]amino}benzene)sulfonyl]piperidin-4-yl}propanamide] | – | 5 | 123 | – |

Reference: patent publication US11279687B2, “Compounds and compositions for the inhibition of NAMPT” (Valo Health, Inc., priority 2010, dated 2022)
